The results in this text go back to US8759481B2, “Peptide vaccines for cancers expressing tumor-associated antigens” (Oncotherapy Science, Inc., priority 2007, dated 2014).

Holding throughout (type): cell-based, human
The test system of data set [1] is PK45P cancer cell line. The data set is described as follows: 51Cr release cytotoxicity assay. Particulars: PK45P expressing both KIF20A and HLA-A24; listed as KIF20A-A24-9-305. The procedure: (§1) Cytotoxic activity was evaluated by a four-hour ^51Cr release assay. The target cells were pulsed with a 20 micro g/mL concentration of peptide overnight. The target cells were labeled with 100 micro Ci of Na2^51CrO4 at 37 degrees C. for one hour, and then washed three times with RPMI1640. The target cells (1×10^4/100 micro L) and 100 micro L of effector cells at various numbers with a total volume of 200 micro L were placed into a round-bottomed 96-well microtiter plate (Corning), and cultured at 37 degrees C. in a CO2 incubator for four hours. After culturing, 100 micro L of the supernatant was collected from each well, and measured the radioactivity using a gamma counter. Spontaneous release was the radioactivity from the target cells with medium in the absence of effector cells, and maximum release was the radioactivity from the target cells with 1 M HCl.
(§2) The Percentage of specific cytotoxicity was determined by calculating as following formula: % Specific lysis=[(experimental release−spontaneous release)/(maximum release−spontaneous release)]×100. Results Enhanced CDH3, EPHA4, ECT2, HIG2, INHBB, KIF20A, KNTC2, TTK and URLC10 Expression in Cancers
(§3) Furthermore, Cytotoxic activity was examined by cytotoxicity assay according to the protocols set forth in the “Materials and Methods” section above.

The subject of data set [2] is PK59 cancer cell line. The data set is described as follows: 51Cr release cytotoxicity assay. The following applies: PK59 expressing KIF20A but not HLA-A24. On the procedure: as §1, §2, §3
Data set [3] has as its system peptide-pulsed A24-LCL cells. The data set is described as follows: CTL line establishment, IFN-gamma ELISA. The following applies: HLA-A24 peptides; vs target without peptide pulse. The gist of the method:
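Peptide-pulsed A24-LCL or T2 cells (1×10^4/well) served as stimulators for responder cells from 48-well cultures or limiting-dilution CTL clones. Positive wells scored by IFN-gamma ELISPOT; CTL line establishment from positive wells confirmed by IFN-gamma ELISA; lines expanded with anti-CD3 (40 ng/ml), IL-2 and MMC-inactivated B-LCL feeders.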
Background: ELISA stands for enzyme-linked immunosorbent assay.

Data set [4] concerns peptide-pulsed A24-LCL cells. The data set is described as follows: IFN-gamma ELISPOT assay (positive wells). The following applies: HLA-A24 peptides; as compared to the control. In a few lines: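 PBMC-derived DCs from HLA-A*2402 and/or A*0201 donors, pulsed with 20 micro g/ml peptide plus 3 micro g/ml beta 2-microglobulin, stimulated autologous CD8+ T cells three times (days 0, 7, 14). On day 21, responders were tested against peptide-pulsed A24-LCL or T2 cells by IFN-gamma ELISPOT. Values are reported as positive wells/wells tested; CTL lines confirmed by ELISA.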

Data set [5] deals with HEK293 transfected with full length KNTC2 gene and HLA-A*2402. Put plainly: Specific CTL activity against transfected target cells. Particulars: vs control transfectants; listed as KNTC2-A24-10-452. On the procedure:
(§4) Briefly, peptide-pulsed A24-LCL or T2 cell (1×10^4/well) was prepared as stimulator cells. Cultured Cells in 48 wells or CTL clones after limiting dilution were used as responder cells. IFN-gamma ELISPOT assay and ELISA assay were performed under manufacture procedure.
(§5) The cDNA encoding an open reading frame of target genes or HLA-A02 or HLA-A24 was amplified by PCR. The PCR-amplified product was cloned into pcDNA3.1 myc-His vector (Invitrogen). The plasmids were transfected into the target cells, HLA-A02 and HLA-A24-null normal human cell line COS7 or 293T using lipofectamine (Invitrogen) according to the manufacturer's recommended procedures. Alternatively, the plasmid contained the target genes were transfected into A24-LCL by electroporation using GenePulserII (Biorad). Briefly, 2.5×10^6 A24-LCL cells were pulsed with 10 mcg prasmid at 140V and 1000 micro F. After 2 days from transfection, the transfected cells were treated with Cell dissociation solution and used as the target cells for CTL activity assay.
The established CTL line raised against these peptides were examined for their ability to recognize the target cells expressing KNTC2 and HLA-A*2402. […] HEK293 transfected with full length KNTC2 but not HLA-A*2402, HEK293 transfected with HLA-A*2402 but not full length KNTC2 and HEK293 transfected with HLA-A*2402 and pulsed with KNTC2-9-309 were prepared as controls.

The subject of data set [6] is peptide-pulsed A24-LCL cells. The data set is described as follows: CTL clones by limiting dilution, specific CTL activity. Particulars: HLA-A24 peptides; vs target without peptide pulse. The gist of the method:
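CTLs cloned by limiting dilution at 0.3, 1 and 3 cells/well with two B-lymphoblastoid lines, 30 ng/ml anti-CD3 and 125 U/ml IL-2, IL-2 re-added at day 10; activity tested day 14. Responders stimulated by peptide-pulsed A24-LCL or T2 cells (1×10^4/well); IFN-gamma read by ELISPOT and ELISA.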

The subject of data set [7] is peptide-pulsed T2 cells. Put plainly: IFN-gamma ELISPOT assay (positive wells). The following applies: HLA-A02 peptides; as compared to the control. In a few lines:
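CD8+ T cells from HLA-A*2402 and/or HLA-A*0201 donors were stimulated 1:20 with autologous monocyte-derived DCs pulsed with 20 µg/ml peptide plus β2-microglobulin, in IL-7, with IL-2 added, restimulated on days 7 and 14. On day 21, IFN-γ ELISPOT against peptide-pulsed T2 or A24-LCL cells (1×10^4/well) scored wells as positive, with CTL lines confirmed by ELISA.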

Data set [8] deals with peptide-pulsed T2 cells. The data set is described as follows: CTL line establishment, IFN-gamma ELISA. Particulars: HLA-A02 peptides; vs target without peptide pulse. In a few lines:
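CTLs expanded with MMC-inactivated B-lymphoblastoid lines, 40 ng/ml anti-CD3 and IL-2 (120 IU/ml day 1, then 30 IU/ml on days 5, 8, 11). Peptide-pulsed T2 or A24-LCL stimulators (1×10^4/well) incubated with cultured wells or limiting-dilution clones as responders; IFN-gamma detected by ELISPOT (positive wells) and ELISA (established CTL lines).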

Data set [9] relates to COS7, Hek293 and 293T transfected with full length URLC10 gene and HLA-A*0201. The data set is described as follows: Specific CTL activity against transfected target cells. Particulars: vs control transfectants; listed as URLC10-A02-10-211. The procedure: as §4, §5
The established CTL line raised against these peptides were examined for their ability to recognize the target cells endogenously expressing URLC10 and HLA-A*0201. […]

Data set [10] concerns TE5 cancer cell line. The data set is described as follows: 51Cr release cytotoxicity assay. Particulars: TE5 expressing only ECT2. On the procedure: as §1, §2, §3
In data set [11] the test system is TE6 cancer cell line. Put plainly: 51Cr release cytotoxicity assay. Particulars: TE6 endogenously expressing ECT2 and HLA-A24; listed as ECT2-A24-9-515. The procedure: as §1, §2, §3
In data set [12] the test system is Caki-1 cancer cell line. The data set is described as follows: 51Cr release cytotoxicity assay. The following applies: Caki-1 endogenously expressing HIG2 and HLA-A02; listed as HIG2-A02-9-4. The procedure: as §1, §2, §3
For data set [13], the system named is A498 cancer cell line. Put plainly: 51Cr release cytotoxicity assay. Particulars: A498 expressing only HIG2. On the procedure:
as §1, §2, §3

Data set [14] deals with 293T transfected with HIG2 gene and/or HLA-A02. Put plainly: 51Cr release cytotoxicity assay.
Excerpt: as §5
Cytotoxic activity was evaluated by a four-hour ^51Cr release assay. […] After culturing, 100 micro L of the supernatant was collected from each well, and measured the radioactivity using a gamma counter. Spontaneous release was the radioactivity from the target cells with medium in the absence of effector cells, and maximum release was the radioactivity from the target cells with 1 M HCl.
The Percentage of specific cytotoxicity was determined by calculating as following formula: % Specific lysis=[(experimental release−spontaneous release)/(maximum release−spontaneous release)]×100. […]

Entries after “also recorded” stand apart in the source; their conditions may differ. Ends that are not written are not given here.

As for FFEIYNELL [SEQ ID NO: 174], the “Cytotoxic activity against PK45P (Cr-release assay)” value in data set [1] is recorded as “remarkably high cytotoxic effect; also recorded: very potent cytotoxic activity”. The “Cytotoxic activity against PK59 (Cr-release assay)” value in data set [2] was “did not show significant specific cytotoxic activity”.
In the case of “SEQ ID NO: 214: HLA-A*2402 binding 10-mer peptide derived from KNTC2 (KYRAQVYVPL)”, the “Establishment of CTL line, specific CTL activity against the peptide-pulsed target determined by ELISA” value in data set [3] is given as “CTL lines were established”. In addition, the “IFN-gamma production by IFN-gamma ELISPOT assay” value in [4] is “potent IFN-gamma production”. Also, in data set [5], the “Specific CTL activity against HEK293 transfected with both KNTC2 and HLA-A24” value is “highest specific CTL activity”. Moreover, the “CTL activities of CTL clones against the peptide-pulsed target” value in [6] is “potent and specific CTL activities”.
For “SEQ ID NO: 288: HLA-A*0201 binding 10-mer peptide derived from URLC10 (LLLASIAAGL)”, the “IFN-gamma production by IFN-gamma ELISPOT assay” value in [7] is reported as “potent IFN-gamma production”. Besides, the “Establishment of CTL line, specific CTL activity against the peptide-pulsed target determined by ELISA” value in data set [8] was “CTL line and clones, were established”. Further, the “Specific CTL activity against COS7, Hek293 and 293T transfected with both URLC10 and HLA-A02” value in data set [9] is “highest specific CTL activity; also recorded: high specific CTL activity”.
For the substance TYPPFVNFF [SEQ ID NO: 80, TYPPFVNFF], the “Cytotoxic activity against TE5 (Cr-release assay)” value in data set [10] is “did not demonstrate the cytotoxic activity”. Besides, the “Cytotoxic activity against TE6 (Cr-release assay)” value in data set [11] is “remarkably high cytotoxic effect; also recorded: very potent cytotoxic activity”.
In the case of VLNLYLLGV [SEQ ID NO: 117, VLNLYLLGV], the “Cytotoxic activity against Caki-1 (Cr-release assay)” value in data set [12] is “remarkably high cytotoxic effect; also recorded: very potent cytotoxic activity”. The “Cytotoxic activity against A498 (Cr-release assay)” value in data set [13] was “did not demonstrate the cytotoxic activity”. Moreover, the “Cytotoxic activity against 293T transfected with both HIG2 gene and HLA-A02 (Cr-release assay)” value in data set [14] is “very potent cytotoxic activity”. Besides, the “Cytotoxic activity against 293T transfected only HIG2 or only HLA-A02 (Cr-release assay)” value in [14] (control transfectants) is given as “did not demonstrate the cytotoxic activity”.
